The text below walks through data of patent US11512097B2, “Heterocyclic compounds as Delta-5 desaturase inhibitors and methods of use” (Amgen Inc., priority 2019, dated 2022).

The structures appear in SMILES notation.

As usually defined, the IC50 is the concentration at which inhibition is half-maximal. A high value points to lower potency.

T1 sequence (O60427 whole entry, species assumed): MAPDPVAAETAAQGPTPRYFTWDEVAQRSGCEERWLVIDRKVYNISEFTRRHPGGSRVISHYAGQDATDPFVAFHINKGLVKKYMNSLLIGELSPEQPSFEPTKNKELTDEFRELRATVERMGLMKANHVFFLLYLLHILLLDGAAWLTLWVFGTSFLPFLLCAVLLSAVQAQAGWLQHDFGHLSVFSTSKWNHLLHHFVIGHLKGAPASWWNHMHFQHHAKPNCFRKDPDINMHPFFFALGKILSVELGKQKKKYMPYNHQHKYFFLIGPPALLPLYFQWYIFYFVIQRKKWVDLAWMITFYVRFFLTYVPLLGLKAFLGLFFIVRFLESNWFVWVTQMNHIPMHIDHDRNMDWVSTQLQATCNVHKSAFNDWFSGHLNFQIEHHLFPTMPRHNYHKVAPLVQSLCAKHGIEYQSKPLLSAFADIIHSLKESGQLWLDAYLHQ

The experiment has as its target T1, Delta-5-Desaturase (D5D), membrane preparations of D5D-overexpressing HEK293 6E cells (Homo sapiens, UniProt O60427).
T1 construct: expressed in transfected cells; host or cells: HEK293 6E cells (membrane preparation)
The experiment is described as follows: In vitro measurement of Delta-5-Desaturase inhibitory activity using DGLA-CoA and Arachidonyl-CoA mass spectrometric assays. The class given is biochemical. Conditions: D5D membrane 10 μg/mL, one-hour incubation, average of at least two independent runs. Put shortly:
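Substrate mix (0.01 mM DGLA with NADH, ATP, coenzyme A) was incubated 1 h at room temperature with HEK293 6E D5D membranes at 10 μg/mL final, pH 7.5. Negative-mode SPE-MS/MS monitored DGLA-CoA (m/z 526.6) and arachidonyl-CoA (m/z 525.6). Inhibition normalised to DMSO and no-enzyme wells gave IC50s, mean of ≥2 runs.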
Compound `Cn1c(Cl)cn2c(=O)c(-c3cnn(CCC(F)(F)F)c3)c(C(F)(F)F)nc12` [Example 51, 2-chloro-1-methyl-7-(trifluoromethyl)-6-[1-(3,3,3-trifluoropropyl)-1H-pyrazol-4-yl]-1H,5H-imidazo[1,2-a]pyrimidin-5-one] showed an IC50 of 36.8 nM.

The compound `Cc1nn2c(=O)c(-c3cnn(C[C@@H]4CC4(F)F)c3)c(C(F)(F)F)nc2s1` (single isomer, unassigned) [Example 112] had a concentration for half-maximal inhibition (IC50) of 861 nM.

In the case of `O=c1c(-c2cnn(CC(F)(F)C(F)(F)F)c2)c(C(F)(F)F)nc2n1CCC2` [Example 19, 3-[1-(2,2,3,3,3-pentafluoropropyl)-1H-pyrazol-4-yl]-2-(trifluoromethyl)-4H,6H,7H,8H-pyrrolo[1,2-a]pyrimidin-4-one], inhibition was half-maximal at 46.3 nM (IC50).

`Cc1cn2c(=O)c(-c3cnn(CCC(F)(F)F)c3)c(C(F)(F)F)nc2n1CC1CC(F)(F)C1` [Example 82, 1-[(3,3-difluorocyclobutyl)methyl]-2-methyl-7-(trifluoromethyl)-6-[1-(3,3,3-trifluoropropyl)-1H-pyrazol-4-yl]-1H,5H-imidazo[1,2-a]pyrimidin-5-one] yielded an IC50 of 2030 nM. Compared with the last compound, the IC50 is about 44-fold higher.

Consider `COCc1cn2c(=O)c(-c3cnn(CCC(F)(F)F)c3)c(C(F)(F)F)nc2n1C` [Example 63, 2-(methoxymethyl)-1-methyl-7-(trifluoromethyl)-6-[1-(3,3,3-trifluoropropyl)-1H-pyrazol-4-yl]-1H,5H-imidazo[1,2-a]pyrimidin-5-one], for which the midpoint of inhibition, the IC50, lay at 160 nM.

Turning to `O=c1c(-c2cnn(CC(F)(F)C(F)(F)F)c2)c(C(F)(F)F)nc2sccn12` [Example 1, 6-[1-(2,2,3,3,3-pentafluoropropyl)-1H-pyrazol-4-yl]-7-(trifluoromethyl)-5H-[1,3]thiazolo[3,2-a]pyrimidin-5-one], it took 3.8 nM to reach half-maximal inhibition (IC50).

The compound `Cc1cn2c(=O)c(-c3cnn(C[C@@H]4CC4(F)F)c3)c(C(F)(F)F)nc2[nH]1` (single isomer, unassigned) [Example 108] yielded a half-inhibitory concentration (IC50) of 12 nM.

With `O=c1c(-c2cnn(CC(F)(F)C(F)(F)F)c2)c(C(F)(F)F)nc2n1CC1CC21` (stereo not drawn) [Example 25, 8-[1-(2,2,3,3,3-pentafluoropropyl)-1H-pyrazol-4-yl]-9-(trifluoromethyl)-6,10-diazatricyclo[4.4.0.0^2,4]deca-1(10),8-dien-7-one], half-maximal inhibition (IC50) required 354 nM.

Turning to `O=c1c(-c2ccc(OCC(F)(F)F)cc2)c(C(F)(F)F)nc2sccn12` [Example 31, 6-[4-(2,2,2-trifluoroethoxy)phenyl]-7-(trifluoromethyl)-5H-[1,3]thiazolo[3,2-a]pyrimidin-5-one], the half-inhibitory concentration (IC50) turned out to be 2.3 nM.

Compound `Cc1nn2c(=O)c(-c3cnn(CCC(F)(F)F)c3)c(C(F)(F)F)nc2s1` [Example 20, 2-methyl-7-(trifluoromethyl)-6-[1-(3,3,3-trifluoropropyl)-1H-pyrazol-4-yl]-5H-[1,3,4]thiadiazolo[3,2-a]pyrimidin-5-one] had a half-maximal inhibitory concentration (IC50) of 32.9 nM.

As for `O=c1c(-c2cnn(CCC(F)(F)F)c2)c(C(F)(F)F)nc2sccn12` [Example 8, 7-(trifluoromethyl)-6-[1-(3,3,3-trifluoropropyl)-1H-pyrazol-4-yl]-5H-[1,3]thiazolo[3,2-a]pyrimidin-5-one], the 50% inhibitory concentration (IC50) was found to be 4.6 nM.

`CC1Cn2c(nc(C(F)(F)F)c(-c3cnn(CC(F)(F)C(F)(F)F)c3)c2=O)S1` (stereo not drawn) [Example 24, 2-methyl-6-[1-(2,2,3,3,3-pentafluoropropyl)-1H-pyrazol-4-yl]-7-(trifluoromethyl)-2H,3H,5H-[1,3]thiazolo[3,2-a]pyrimidin-5-one] registered an IC50 of 168 nM.

Take `Cc1cn2c(=O)c(-c3cnn(CC(F)(F)C(F)(F)F)c3)c(C(F)(F)F)nc2n1C(C)C` [Example 58, 2-methyl-6-[1-(2,2,3,3,3-pentafluoropropyl)-1H-pyrazol-4-yl]-1-(propan-2-yl)-7-(trifluoromethyl)-1H,5H-imidazo[1,2-a]pyrimidin-5-one]: 31.5 nM corresponded to half-maximal inhibition (IC50).

On to `C#CCn1c(C)cn2c(=O)c(-c3cnn(CC(F)(F)C(F)(F)F)c3)c(C(F)(F)F)nc12` [Example 85, 2-methyl-6-[1-(2,2,3,3,3-pentafluoropropyl)-1H-pyrazol-4-yl]-1-(prop-2-yn-1-yl)-7-(trifluoromethyl)-1H,5H-imidazo[1,2-a]pyrimidin-5-one], for which the half-maximal inhibitory concentration (IC50) turned out to be 7.1 nM.

In turn, `Cc1cn2c(=O)c(-c3cnn(CC(F)(F)C(F)(F)F)c3)c(C(F)(F)F)nc2n1-c1cncnc1` [Example 99, 2-methyl-6-[1-(2,2,3,3,3-pentafluoropropyl)-1H-pyrazol-4-yl]-1-(pyrimidin-5-yl)-7-(trifluoromethyl)-1H,5H-imidazo[1,2-a]pyrimidin-5-one] had a half-maximal inhibitory concentration (IC50) of 36100 nM.
